Measured values taken from patent US9079895B2, “Morpholino compounds, uses and methods” (University of Dundee, priority 2012, dated 2015).

Legend:
Conditions in all cases: average of at least two experiments
dopamine D2 receptor = dopamine D2 receptor (Homo sapiens (Human), UniProt P14416); experiment: Secondary radioligand binding assay, D2; set-up: key to Ki D2: “—” indicates that a binding interaction was not detected
Method: (§1) 1. Secondary Radioligand Binding Assays
(§2) The detailed experimental protocols for the radioligand and functional receptor assays are available on the NIMH PDSP website at http://pdsp.med.unc.edu/UNC-CH %20Protocol %20Book.pdf.
(§3) Radioligand is diluted to five times the assay concentration (see Table 18) in Standard Binding Buffer. Typically, the assay concentration of radioligand is a value between one half the KD and the KD of a particular radioligand at its target. 50 μl aliquots of radioligand are dispensed into the wells of a 96-well plate containing 100 μl of Standard Binding Buffer. Then, duplicate 50 μl aliquots of the test and reference compound dilutions are added.
(§4) The 250 μl reactions are incubated at room temperature and shielded from light (to prevent photolysis of light-sensitive ligands) for 1.5 hours, then harvested by rapid filtration onto Whatman GF/B glass fiber filters pre-soaked with 0.3% polyethyleneimine using a 96-well Brandel harverster. Four rapid 500 μl washes are performed with chilled Standard Binding Buffer to reduce non-specific binding. Filters are placed in 6 ml scintillation tubes and allowed to dry overnight. The next day, 4 ml of EcoScint scintillation cocktail (National Diagnostics) are added to each tube. The tubes are capped, labeled, and counted by liquid scintillation counting. […] The filter mats are dried, then scintillant is melted onto the filters and the radioactivity retained on the filters is counted in a Microbeta scintillation counter.
(§5) Raw data (dpm) representing total radioligand binding (i.e. specific+non-specific binding) are plotted as a function of the logarithm of the molar concentration of the competitor (i.e. test or reference compound).
(§6) B. Dopamine Receptors: D1, D2, D3, D4, D5 Assay Buffers: Dopamine Binding Buffer (50 mM NaCl, 50 mM HEPES-HCl, 5 mM MgCl2, 0.5 mM EDTA, pH 7.4) Membrane Fraction Source: Transiently or stably transfected cell lines (e.g. HEK293, COS, CHO, NIH3T3)
(§7) The method is carried out in the manner described for the serotonin receptor assay above. Eleven dilutions (5× assay concentration) of the test and reference (see Table 19) compounds are prepared in Dopamine Binding Buffer by serial dilution, as previously described. Radioligand is diluted to five times the assay concentration (see Table 20) in Dopamine Binding Buffer.

dopamine D5 receptor = dopamine D5 receptor (Homo sapiens (Human), UniProt P21918); experiment: Secondary radioligand binding assay, D5; set-up: key to Ki D5: “—” indicates that a binding interaction was not detected
Method: as §1, §2, §3, §4, §5, §6, §7

5HT1d receptor = 5HT1d receptor (Homo sapiens (Human), UniProt P28221); experiment: Secondary radioligand binding assay, 5HT1d; set-up: key to Ki 5HT1d: “—” indicates that a binding interaction was not detected;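 note: competition binding against a radioligand on membranes from transfected cell lines, 1.5 h at room temperature, filter-retained radioactivity counted by liquid scintillation, total binding plotted versus log competitor concentration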
Method: (§8) Assay Buffer: Standard Binding Buffer (50 mM Tris-HCl, 10 mM MgCl2, 1 mM EDTA, pH 7.4)
(§9) Membrane Fraction Source: Transiently or stably transfected cell lines (e.g., HEK293, COS, CHO, NIH3T3)

5HT3 receptor = 5HT3 receptor (Homo sapiens (Human), UniProt P46098); experiment: Secondary radioligand binding assay, 5HT3; set-up: key: “—” indicates that a binding interaction was not detected;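 note: radioligand competition binding on membranes from transfected cell lines, 1.5 h incubation at room temperature, filter-retained radioactivity measured by liquid scintillation counting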
Method: as §8, §9

dopamine D1 receptor = dopamine D1 receptor (Homo sapiens (Human), UniProt P21728); experiment: Secondary radioligand binding assay, D1; set-up: key to Ki D1: “—” indicates that a binding interaction was not detected
Method: as §1, §2, §3, §4, §5, §6, §7

5HT7 receptor = 5HT7 receptor (Homo sapiens (Human), UniProt P34969); experiment: Secondary radioligand binding assay, 5HT7; set-up: key to Ki 5HT7: “—” indicates that a binding interaction was not detected;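 note: competition of test compound with radioligand for binding to membranes from transfected cell lines, 1.5 h incubation at room temperature, filter-bound radioactivity read by liquid scintillation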
Method: as §8, §9

[1] = biological target: Alpha1B adrenergic receptor (Homo sapiens (Human), UniProt P35368); experiment: Secondary radioligand binding assay, Alpha1B; set-up: key to Ki Alpha1B: “—” indicates that a binding interaction was not detected
Source text: 1. Secondary Radioligand Binding Assays The detailed experimental protocols for the radioligand and functional receptor assays are available on the NIMH PDSP website at http://pdsp.med.unc.edu/UNC-CH %20Protocol %20Book.pdf. Raw data (dpm) representing total radioligand binding (i.e. specific+non-specific binding) are plotted as a function of the logarithm of the molar concentration of the competitor (i.e. test or reference compound). […] C. Adrenergic Receptors: α1A, α1B, α2A, α2B, α2C, β1, β2, β3 Assay Buffers: For α1 receptors, α1 Binding Buffer (20 mM Tris-HCl, 145 mM NaCl, pH 7.4); for α2 receptors, α2 Binding Buffer (50 mM Tris-HCl, 5 mM MgCl2, pH 7.7); for β receptors, β Binding Buffer (50 mM Tris-HCl, 3 mM MnCl2, pH 7.7) Membrane Fraction Source: Transiently or stably transfected cell lines (e.g. HEK293, COS, CHO, NIH3T3) Protocol adapted from Arango et al. […] (1990), Gen. Psychiatry, 47: 1038-1047. The method is carried out in the manner described for the serotonin receptor assay above, except where described below. Eleven dilutions (5× assay concentration) of the test and reference (see Table 20) compounds are prepared in the appropriate buffer by serial dilution, as previously described. Radioligand is diluted to five times the assay concentration (see Table 21) in the appropriate buffer. […] Four rapid 500-μl washes are performed with chilled distilled water (for α1 and β receptors) or 0.1% polyethyleneimine (for α2 receptors) to reduce non-specific binding. Filters are placed in 6 ml scintillation tubes and allowed to dry overnight and the samples are treated to obtain data as described above. [table]

5HT5 receptor = 5HT5 receptor (Homo sapiens (Human), UniProt P47898); experiment: Secondary radioligand binding assay, 5HT5; set-up: key: “—” indicates that a binding interaction was not detected;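 note: competitive radioligand displacement on membranes from transfected cell lines, incubated at room temperature in the dark, filter-retained radioactivity counted by liquid scintillation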
Method: as §8, §9

5HT6 receptor = 5HT6 receptor (Homo sapiens (Human), UniProt P50406); experiment: Secondary radioligand binding assay, 5HT6; set-up: key: “—” indicates that a binding interaction was not detected;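 note: competition displacement of radioligand from membranes of transfected cell lines expressing the receptor, 1.5 h at room temperature, bound radioactivity counted by scintillation after filtration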
Method: as §8, §9

dopamine D3 receptor = dopamine D3 receptor (Homo sapiens (Human), UniProt P35462); experiment: Secondary radioligand binding assay, D3; set-up: key to Ki D3: “—” indicates that a binding interaction was not detected
Method: as §1, §2, §3, §4, §5, §6, §7

5HT6 receptor, sequence (P50406 whole entry): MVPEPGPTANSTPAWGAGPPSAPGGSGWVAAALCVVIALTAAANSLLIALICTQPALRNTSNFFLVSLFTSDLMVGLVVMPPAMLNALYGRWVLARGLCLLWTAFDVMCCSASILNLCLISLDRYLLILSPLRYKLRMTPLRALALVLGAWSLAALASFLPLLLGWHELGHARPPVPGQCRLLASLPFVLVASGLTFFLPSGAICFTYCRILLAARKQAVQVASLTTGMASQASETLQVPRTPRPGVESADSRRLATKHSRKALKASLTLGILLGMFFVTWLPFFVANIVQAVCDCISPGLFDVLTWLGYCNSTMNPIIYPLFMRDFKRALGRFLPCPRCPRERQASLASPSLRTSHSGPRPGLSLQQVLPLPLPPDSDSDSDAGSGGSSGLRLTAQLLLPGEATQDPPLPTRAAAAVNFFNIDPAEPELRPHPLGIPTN
Alpha1B adrenergic receptor, sequence (P35368 whole entry): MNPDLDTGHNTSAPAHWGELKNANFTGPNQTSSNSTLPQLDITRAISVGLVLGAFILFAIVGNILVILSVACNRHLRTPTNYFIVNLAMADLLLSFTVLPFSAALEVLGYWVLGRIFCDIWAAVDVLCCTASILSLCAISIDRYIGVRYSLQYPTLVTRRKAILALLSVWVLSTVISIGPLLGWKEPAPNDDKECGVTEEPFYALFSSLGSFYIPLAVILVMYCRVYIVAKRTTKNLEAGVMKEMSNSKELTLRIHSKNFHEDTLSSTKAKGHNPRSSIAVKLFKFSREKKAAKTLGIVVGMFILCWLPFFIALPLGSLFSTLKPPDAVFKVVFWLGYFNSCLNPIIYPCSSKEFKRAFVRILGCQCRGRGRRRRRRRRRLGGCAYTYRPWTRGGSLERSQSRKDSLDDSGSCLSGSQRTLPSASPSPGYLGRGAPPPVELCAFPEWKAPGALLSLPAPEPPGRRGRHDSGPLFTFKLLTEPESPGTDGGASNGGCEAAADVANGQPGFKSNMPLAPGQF
5HT3 receptor, sequence (P46098 24-478): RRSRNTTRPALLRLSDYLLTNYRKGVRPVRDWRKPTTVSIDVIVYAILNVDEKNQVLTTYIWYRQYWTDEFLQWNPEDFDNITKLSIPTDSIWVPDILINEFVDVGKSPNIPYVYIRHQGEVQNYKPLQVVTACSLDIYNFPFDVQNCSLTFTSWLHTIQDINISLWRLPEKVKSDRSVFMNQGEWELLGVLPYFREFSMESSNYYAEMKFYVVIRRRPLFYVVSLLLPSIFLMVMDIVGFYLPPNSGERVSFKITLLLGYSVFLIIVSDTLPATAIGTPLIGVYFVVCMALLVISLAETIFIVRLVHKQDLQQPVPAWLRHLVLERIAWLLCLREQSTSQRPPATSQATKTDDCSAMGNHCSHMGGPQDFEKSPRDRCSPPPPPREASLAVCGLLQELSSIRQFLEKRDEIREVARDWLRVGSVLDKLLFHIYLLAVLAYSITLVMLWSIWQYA
5HT1d receptor, sequence (P28221 whole entry): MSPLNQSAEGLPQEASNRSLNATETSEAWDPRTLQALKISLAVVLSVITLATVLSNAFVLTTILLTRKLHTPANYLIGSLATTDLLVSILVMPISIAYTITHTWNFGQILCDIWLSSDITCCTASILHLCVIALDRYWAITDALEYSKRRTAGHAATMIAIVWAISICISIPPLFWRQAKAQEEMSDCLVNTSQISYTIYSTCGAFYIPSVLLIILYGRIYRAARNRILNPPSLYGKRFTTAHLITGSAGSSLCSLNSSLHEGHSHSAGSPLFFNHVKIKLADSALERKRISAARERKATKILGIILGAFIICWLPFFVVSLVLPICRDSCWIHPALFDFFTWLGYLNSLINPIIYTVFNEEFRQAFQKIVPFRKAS
5HT7 receptor, sequence (P34969 whole entry): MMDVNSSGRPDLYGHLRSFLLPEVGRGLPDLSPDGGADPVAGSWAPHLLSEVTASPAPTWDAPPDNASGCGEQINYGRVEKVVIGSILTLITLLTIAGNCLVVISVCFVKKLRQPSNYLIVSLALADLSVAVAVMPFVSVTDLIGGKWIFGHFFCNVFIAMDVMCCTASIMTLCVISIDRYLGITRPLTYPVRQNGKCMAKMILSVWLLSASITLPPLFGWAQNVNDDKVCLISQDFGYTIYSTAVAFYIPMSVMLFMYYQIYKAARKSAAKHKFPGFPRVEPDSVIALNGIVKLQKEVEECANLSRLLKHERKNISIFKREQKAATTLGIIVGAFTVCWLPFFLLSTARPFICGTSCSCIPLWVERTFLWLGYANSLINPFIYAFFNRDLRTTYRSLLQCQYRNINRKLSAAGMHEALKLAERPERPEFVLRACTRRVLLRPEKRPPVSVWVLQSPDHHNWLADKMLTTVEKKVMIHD
dopamine D5 receptor, sequence (P21918 whole entry): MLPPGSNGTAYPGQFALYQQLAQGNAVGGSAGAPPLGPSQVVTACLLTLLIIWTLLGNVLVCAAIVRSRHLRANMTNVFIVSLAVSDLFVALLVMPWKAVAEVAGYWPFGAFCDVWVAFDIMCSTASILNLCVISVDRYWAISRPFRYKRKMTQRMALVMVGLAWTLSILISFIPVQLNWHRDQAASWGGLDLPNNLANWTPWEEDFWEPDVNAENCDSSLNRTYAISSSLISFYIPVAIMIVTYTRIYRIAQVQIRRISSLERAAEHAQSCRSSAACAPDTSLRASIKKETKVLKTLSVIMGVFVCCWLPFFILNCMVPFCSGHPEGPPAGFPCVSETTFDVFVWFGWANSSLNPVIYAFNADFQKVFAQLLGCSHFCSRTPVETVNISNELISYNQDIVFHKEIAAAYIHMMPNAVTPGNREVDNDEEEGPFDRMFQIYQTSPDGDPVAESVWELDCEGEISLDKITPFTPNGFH
dopamine D1 receptor, sequence (P21728 whole entry): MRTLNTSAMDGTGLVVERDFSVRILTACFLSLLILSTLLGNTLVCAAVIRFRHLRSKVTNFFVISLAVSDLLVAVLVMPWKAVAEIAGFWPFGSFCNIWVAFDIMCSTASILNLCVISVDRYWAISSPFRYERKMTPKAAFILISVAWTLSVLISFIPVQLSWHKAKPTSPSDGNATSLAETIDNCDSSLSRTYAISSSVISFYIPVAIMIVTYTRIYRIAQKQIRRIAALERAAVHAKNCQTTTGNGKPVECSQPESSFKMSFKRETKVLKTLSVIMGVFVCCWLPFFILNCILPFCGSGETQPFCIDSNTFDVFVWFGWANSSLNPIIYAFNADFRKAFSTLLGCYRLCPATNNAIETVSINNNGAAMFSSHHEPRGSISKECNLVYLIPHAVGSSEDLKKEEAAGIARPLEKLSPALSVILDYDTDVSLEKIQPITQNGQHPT
dopamine D3 receptor, sequence (P35462 whole entry, species assumed): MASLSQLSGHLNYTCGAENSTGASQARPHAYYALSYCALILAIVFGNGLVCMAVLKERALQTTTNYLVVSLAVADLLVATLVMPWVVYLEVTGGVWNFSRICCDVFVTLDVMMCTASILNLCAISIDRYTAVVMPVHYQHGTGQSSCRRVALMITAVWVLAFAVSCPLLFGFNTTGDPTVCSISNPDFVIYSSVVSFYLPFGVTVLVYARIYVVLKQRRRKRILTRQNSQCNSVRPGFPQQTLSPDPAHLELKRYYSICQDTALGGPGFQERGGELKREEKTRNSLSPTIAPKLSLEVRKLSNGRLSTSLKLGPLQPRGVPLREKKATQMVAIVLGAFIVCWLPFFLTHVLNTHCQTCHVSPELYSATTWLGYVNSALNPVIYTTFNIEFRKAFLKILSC
dopamine D2 receptor, sequence (P14416 whole entry, species assumed): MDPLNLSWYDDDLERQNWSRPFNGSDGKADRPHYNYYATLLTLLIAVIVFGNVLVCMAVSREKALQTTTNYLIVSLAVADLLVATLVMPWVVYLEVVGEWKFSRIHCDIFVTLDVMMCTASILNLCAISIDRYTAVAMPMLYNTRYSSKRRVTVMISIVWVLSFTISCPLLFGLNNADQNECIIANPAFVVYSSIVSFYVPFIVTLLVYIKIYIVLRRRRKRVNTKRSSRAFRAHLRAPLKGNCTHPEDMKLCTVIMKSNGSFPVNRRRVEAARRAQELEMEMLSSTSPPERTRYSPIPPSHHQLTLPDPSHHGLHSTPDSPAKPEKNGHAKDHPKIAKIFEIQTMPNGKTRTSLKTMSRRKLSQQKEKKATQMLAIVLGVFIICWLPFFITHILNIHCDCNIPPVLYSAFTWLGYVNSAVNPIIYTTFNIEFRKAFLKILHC
5HT5 receptor, sequence (P47898 whole entry): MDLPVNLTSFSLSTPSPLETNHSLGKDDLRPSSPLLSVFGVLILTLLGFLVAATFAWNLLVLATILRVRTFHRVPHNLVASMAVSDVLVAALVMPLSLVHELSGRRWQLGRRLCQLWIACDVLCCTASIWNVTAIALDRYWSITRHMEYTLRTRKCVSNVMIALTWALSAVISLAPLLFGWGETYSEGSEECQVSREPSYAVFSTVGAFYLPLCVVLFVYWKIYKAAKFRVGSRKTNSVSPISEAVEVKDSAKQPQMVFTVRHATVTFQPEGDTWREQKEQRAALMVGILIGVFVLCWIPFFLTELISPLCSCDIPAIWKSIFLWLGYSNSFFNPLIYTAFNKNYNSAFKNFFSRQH

Structure (SMILES)	Ki D2 (dopamine D2 receptor)	Ki D5 (dopamine D5 receptor)	Ki 5HT1d (5HT1d receptor)	Ki 5HT3 (5HT3 receptor)	Ki D1 (dopamine D1 receptor)	Ki 5HT7 (5HT7 receptor)	Ki Alpha1B [1]	Ki 5HT5 (5HT5 receptor)	Ki 5HT6 (5HT6 receptor)	Ki D3 (dopamine D3 receptor)	Ki (dopamine D3 receptor) [µM]	Ki (dopamine D1 receptor) [µM]	Ki (dopamine D2 receptor) [µM]	Ki (5HT1d receptor) [µM]	Ki (5HT7 receptor) [µM]	Ki [1] [µM]	Ki (dopamine D5 receptor) [µM]
O=C(CN1CCO[C@@H](COc2ccccn2)C1)N1CCc2ccccc21 [Compound 14r, (R)-1-(Indolin-1-yl)-2-(2-((pyridin-2-yloxy)methyl)morpholino)ethanone]	—	—	—	—	—	—	—	—	—	—							
c1ccc(OC[C@H]2CN(CCN3CCc4ccccc43)CCO2)nc1 [Compound 15r, (R)-4-(2-(Indolin-1-yl)ethyl)-2-((pyridin-2-yloxy)methyl)morpholine]	—	—	—	—	—	—	—	—	—		> 10						
Cc1ccnc(OC[C@H]2CN(CC(=O)N3CCc4ccccc43)CCO2)c1 [Compound 16r]	—	—	—	—		—	—	—	—	—		> 10					
Cc1ccnc(OC[C@H]2CN(CCN3CCc4ccccc43)CCO2)c1 [Compound 17r, (R)-4-(2-(Indolin-1-yl)ethyl)-2-(((4-methylpyridin-2-yl)oxy)methyl)morpholine]	—	—	—	—		—	—	—	—	—		> 10					
O=C(CN1CCO[C@H](COc2ccccc2)C1)N1CCc2ccccc21 [Compound 18s, (S)-1-(Indolin-1-yl)-2-(2-(phenoxymethyl)morpholino)ethanone]	—	—	—	—	—	—	—	—	—	—							
c1ccc(OC[C@@H]2CN(CCN3CCc4ccccc43)CCO2)cc1 [Compound 19s, (S)-4-(2-(Indolin-1-yl)ethyl)-2-(phenoxymethyl)morpholine]		—		—				—	—		2.83	1.35	0.342	0.59	0.468	7.21	
O=C(CN1CCO[C@@H](COc2cccnc2)C1)N1CCc2ccccc21 [Compound 20r, (R)-1-(Indolin-1-yl)-2-(2-((pyridin-3-yloxy)methyl)morpholino)ethanone]	—	—	—	—	—	—	—	—	—	—							
O=C(CN1CCO[C@H](COc2cccnc2)C1)N1CCc2ccccc21 [Compound 20s, (S)-1-(Indolin-1-yl)-2-(2-((pyridin-3-yloxy)methyl)morpholino)ethanone]	—	—	—	—	—	—	—	—	—	—							
c1cncc(OC[C@H]2CN(CCN3CCc4ccccc43)CCO2)c1 [Compound 21r, (R)-4-(2-(Indolin-1-yl)ethyl)-2-((pyridin-3-yloxy)methyl)morpholine]	—	—	—	—		—	—	—	—	—		> 10					
c1cncc(OC[C@@H]2CN(CCN3CCc4ccccc43)CCO2)c1 [Compound 21s, (S)-4-(2-(Indolin-1-yl)ethyl)-2-((pyridin-3-yloxy)methyl)morpholine]			—	—		—	—	—	—		8.36	> 10	> 10				> 10
O=C(CN1CCO[C@@H](COc2cccc(Cl)c2)C1)N1CCc2ccccc21 [Compound 22r, (R)-2-(2-((3-chlorophenoxy)methyl)morpholino)-1-(indolin-1-yl)ethanone]	—	—	—	—	—	—	—	—	—	—							
O=C(CN1CCO[C@H](COc2cccc(Cl)c2)C1)N1CCc2ccccc21 [Compound 22s, (S)-2-(2-((3-Chlorophenoxy)methyl)morpholino)-1-(indolin-1-yl)ethanone]	—	—	—	—	—	—	—	—	—	—							
Clc1cccc(OC[C@H]2CN(CCN3CCc4ccccc43)CCO2)c1 [Compound 23r, (R)-2-((3-Chlorophenoxy)methyl)-4-(2-(indolin-1-yl)ethyl)morpholine]		—	—	—	—	—	—	—	—	—			> 10				
Clc1cccc(OC[C@@H]2CN(CCN3CCc4ccccc43)CCO2)c1 [Compound 23s, (S)-2-((3-chlorophenoxy)methyl)-4-(2-(indolin-1-yl)ethyl)morpholine]		—		—		—		—	—		6.65	2.04	1.89	1.12		6.64	
